Values of other authors in PubChem BioAssay AID1259409 (Chemical Carcinogenesis Research Information System (CCRIS), 2018).

Tested on: rodent chemically induced tumor inhibition, incidence and multiplicity
Assay: CCRIS tumor inhibitor studies

## COc1cc(OC)c2ccc(=O)oc2c1
Carcinogen: 7,12-DIMETHYLBENZ(A)ANTHRACENE, 57-97-6, Dose [Inhibitor]: 0.068 MMOL/G IN DIET FOR 8 D BEGINNING 7 D PRIOR TO CARCINOGEN DOSE (STUDY DURATION: 23 WK), Route [Inhibitor]: ORAL, Species: RAT, Strain/Sex: SPRAGUE-DAWLEY/FEMALE, Target Tissue: Type of Lesion: MAMMARY GLAND: TUMOR, Dose [Carcinogen]: 12 MG IN 1.0 ML OLIVE OIL ONCE ON D 7 OF EXPERIMENT, Promoter: NONE USED
  tumour outcome (control, treated, inhibition, significance): 85%, 38%, 55%, p<0.05
Carcinogen: BENZO[A]PYRENE, 50-32-8, Dose [Inhibitor]: 0.034 MMOL/G IN DIET BEGINNING 1 WK PRIOR TO FIRST CARCINOGEN DOSE AND CONTINUING FOR 3 D POST LAST CARCINOGEN DOSE FOR, Route [Inhibitor]: ORAL, Species: MOUSE, Strain/Sex: ICR/FEMALE, Target Tissue: Type of Lesion: FORESTOMACH: TUMOR, Dose [Carcinogen]: 1 MG IN 0.2 ML CORN OIL 2/WK FOR 4 WK, Promoter: NONE USED
  tumour outcome (control, treated, inhibition, significance): 100%, 94%, 6%, not significant

## CC1=CCCC(C)(C)[C@H]1/C=C/C(C)=C/C=C/C(C)=C/C=C/C=C(C)/C=C/C=C(C)/C=C/C1=C(C)CCCC1(C)C
Carcinogen: 4-NITROQUINOLINE-1-OXIDE, 56-57-5, Dose [Inhibitor]: 0, 0.05% IN DRINKING WATER AD LIBITUM (STUDY DURATION: 30 WK), Route [Inhibitor]: ORAL, Species: MOUSE, Strain/Sex: DDY/MALE, Target Tissue: Type of Lesion: LUNG: TUMOR, Dose [Carcinogen]: 10 MG/KG BW IN OLIVE OIL/CHOLESTEROL (20:1) ONCE, Promoter: GLYCEROL, 56-81-5
  tumour outcome (control, treated, inhibition, significance): 94%, 73%, 22%, not significant
Carcinogen: 4-NITROQUINOLINE-1-OXIDE, 56-57-5, Dose [Inhibitor]: 0, 0.05% IN DRINKING WATER BEGINNING 5 WK POST CARCINOGEN TREATMENT AND CONTINUING FOR 25 WK (STUDY DURATION: 30 WK), Route [Inhibitor]: ORAL, Species: MOUSE, Strain/Sex: DDY/MALE, Target Tissue: Type of Lesion: LUNG: TUMORS, Dose [Carcinogen]: 10 MG/KG BW IN OLIVE OIL AND CHOLESTEROL (20:1) ONCE, Promoter: NONE USED
  tumour outcome (control, treated, inhibition, significance): 94%, 73%, 22%, not calculated
Carcinogen: 7,12-DIMETHYLBENZ[A]ANTHRACENE, 57-97-6, Dose [Inhibitor]: 0, 0.05% IN DRINKING WATER AD LIBITUM FOR 30 WK BEGINNING 1 WK POST CARCINOGEN DOSE (STUDY DURATION: 31 WK), Route [Inhibitor]: ORAL, Species: MOUSE, Strain/Sex: ICR/FEMALE, Target Tissue: Type of Lesion: SKIN: TUMOR, Dose [Carcinogen]: 100 UG ONCE, Promoter: 12-O-TETRADECANOYLPHORBOL-13-ACETATE, 16561-29-8
  tumour outcome (control, treated, inhibition, significance): 13/16 (81%), 7/16 (44%), 46%, not significant
Carcinogen: 7,12-DIMETHYLBENZ[A]ANTHRACENE, 57-97-6, Dose [Inhibitor]: 0, 200 NMOL IN 200 µL ACETONE 2/WK BEGINNING 1 WK POST CARCINOGEN DOSE APPLIED SIMULTANEOUSLY WITH PROMOTER FOR 20 WK (S, Route [Inhibitor]: DERMAL, Species: MOUSE, Strain/Sex: ICR/?, Target Tissue: Type of Lesion: SKIN: PAPILLOMA, Dose [Carcinogen]: 100 UG ONCE, Promoter: 12-O-TETRADECANOYLPHORBOL-13-ACETATE, 16561-29-8
  tumour outcome (control, treated, inhibition, significance): 69%, 25%, 64%, not calculated
Carcinogen: 7,12-DIMETHYLBENZ[A]ANTHRACENE, 57-97-6, Dose [Inhibitor]: 0, 200 NMOL IN 200 µL ACETONE 2/WK FOR 40 WK APPLIED SIMULTANEOUSLY WITH PROMOTER BEGINNING 1 WK POST CARCINOGEN DOSE (S, Route [Inhibitor]: DERMAL, Species: MOUSE, Strain/Sex: ICR/FEMALE, Target Tissue: Type of Lesion: SKIN: TUMOR, Dose [Carcinogen]: 100 UG ONCE, Promoter: 12-O-TETRADECANOYLPHORBOL-13-ACETATE, 16561-29-8
  tumour outcome (control, treated, inhibition, significance): 10/15 (67%), 5/15 (33%), 51%, p<0.01
Carcinogen: 7,12-DIMETHYLBENZ[A]ANTHRACENE, 57-97-6, Dose [Inhibitor]: 0, 400 NMOL IN 200 µL ACETONE 2/WK BEGINNING 1 WK POST CARCINOGEN DOSE APPLIED SIMULTANEOUSLY WITH PROMOTER FOR 20 WK (S, Route [Inhibitor]: DERMAL, Species: MOUSE, Strain/Sex: ICR/?, Target Tissue: Type of Lesion: SKIN: PAPILLOMA, Dose [Carcinogen]: 100 UG ONCE, Promoter: 12-O-TETRADECANOYLPHORBOL-13-ACETATE, 16561-29-8
  tumour outcome (control, treated, inhibition, significance): 69%, 13%, 81%, not calculated
Carcinogen: NONE USED, Dose [Inhibitor]: 0, 0.005% IN DRINKING WATER AD LIBITUM FOR 40 WK (STUDY DURATION: 40 WK), Route [Inhibitor]: ORAL, Species: MOUSE, Strain/Sex: C3H/HE/MALE, Target Tissue: Type of Lesion: LIVER: TUMOR, Promoter: NONE USED
  tumour outcome (control, treated, inhibition, significance): 100%, 100%, 0%, not significant
Carcinogen: NONE USED, Dose [Inhibitor]: 0, 0.005% IN DRINKING WATER FOR 40 WK (STUDY DURATION: 40 WK), Route [Inhibitor]: ORAL, Species: MOUSE, Strain/Sex: C3H/HE/MALE, Target Tissue: Type of Lesion: LIVER: TUMORS, Promoter: NONE USED
  tumour outcome (control, treated, inhibition, significance): 16/16 (100%), 15/15 (100%), 0%, not significant
Carcinogen: NONE USED, Dose [Inhibitor]: 0, 0.05% IN DRINKING WATER AD LIBITUM FOR 40 WK (STUDY DURATION: 40 WK), Route [Inhibitor]: ORAL, Species: MOUSE, Strain/Sex: C3H/HE/MALE, Target Tissue: Type of Lesion: LIVER: TUMOR, Promoter: NONE USED
  tumour outcome (control, treated, inhibition, significance): 100%, 94%, 6%, not significant
Carcinogen: NONE USED, Dose [Inhibitor]: 0, 0.05% IN DRINKING WATER FOR 40 WK (STUDY DURATION: 40 WK), Route [Inhibitor]: ORAL, Species: MOUSE, Strain/Sex: C3H/HE/MALE, Target Tissue: Type of Lesion: LIVER: TUMORS, Promoter: NONE USED
  tumour outcome (control, treated, inhibition, significance): 16/16 (100%), 16/17 (94%), 6%, not calculated

## CCCCCCC[Se]C#N
Carcinogen: 7,12-DIMETHYLBENZ[A]ANTHRACENE, 57-97-6, Dose [Inhibitor]: 0.1, 2 PPM (SELENIUM) IN DIET FOR 3 WK BEGINNING 2 WK PRIOR TO CARCINOGEN DOSE (STUDY DURATION: 25 WK), Route [Inhibitor]: ORAL, Species: RAT, Strain/Sex: SPRAGUE-DAWLEY/FEMALE, Target Tissue: Type of Lesion: MAMMARY GLAND: TUMOR, Dose [Carcinogen]: 10 MG ONCE, Promoter: NONE USED
  tumour outcome (control, treated, inhibition, significance): 25/30 (83%), 11/30 (37%), 55%, p<0.05
